In BindingDB's records for doi:10.7270/Q2251GJ9 (The Scripps Research Institute Molecular Screening Center, 2007):
Counter-ions that a name gives are not always drawn.

Target: Sphingosine 1-phosphate receptor 1 (Homo sapiens, UniProt P21453)
Test: S1P1 receptor agonists, dose response, cell-based, agonist mode, 60K MLSMR set (AID 468)
[1] = inactive by the depositor's call

Chain of Sphingosine 1-phosphate receptor 1 (P21453 whole entry): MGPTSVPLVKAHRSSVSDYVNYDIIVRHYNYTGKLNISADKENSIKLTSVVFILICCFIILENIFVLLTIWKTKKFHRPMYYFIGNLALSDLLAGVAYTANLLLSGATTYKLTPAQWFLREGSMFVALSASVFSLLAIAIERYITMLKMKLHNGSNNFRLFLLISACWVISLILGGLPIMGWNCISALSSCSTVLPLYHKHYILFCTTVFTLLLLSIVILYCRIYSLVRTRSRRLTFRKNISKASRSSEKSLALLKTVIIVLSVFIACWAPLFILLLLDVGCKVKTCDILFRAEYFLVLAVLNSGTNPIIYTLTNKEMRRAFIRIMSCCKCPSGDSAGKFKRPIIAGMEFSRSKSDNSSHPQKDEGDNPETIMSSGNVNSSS

Row | Structure (SMILES) | EC50 [µM] | EC50 [1] [µM]
1 | O=C(NCc1ccc2c(c1)OCO2)C1CC(=O)N(C2CCCCCCC2)C1 (stereo not given) [1-cyclooctyl-5-keto-N-piperonyl-pyrrolidine-3-carboxamide] | > 95 | 
2 | C=CS(=O)(=O)c1ccc(Oc2ccc(S(=O)(=O)C=C)cc2)cc1 [1-ethenylsulfonyl-4-(4-ethenylsulfonylphenoxy)benzene] | 2.74 | 
3 | CCn1nc(-c2cccs2)nc2c(=O)n(C)c(=O)nc1-2 [1-ethyl-6-methyl-3-thiophen-2-yl-pyrimido[5,4-e][1,2,4]triazine-5,7-dione] | > 10 | 
4 | O=C(c1ccccc1)C(CCC(CN1CCOCC1)C(=O)c1ccccc1)CN1CCOCC1 (stereo not given) [2,5-bis(4-morpholinylmethyl)-1,6-diphenylhexane-1,6-dione;hydrochloride] | 4.8 | 
5 | CCCCc1ccc(C2C(C#N)C(=N)SC(=N)C2C#N)s1 (stereo not given) [2,6-bis(azanyl)-4-(5-butylthiophen-2-yl)-4H-thiopyran-3,5-dicarbonitrile] | 13.4 | 
6 | CCCCn1nnnc1SCC(=O)c1ccc(C)c(C)c1 [2-(1-Butyl-1H-tetrazol-5-ylsulfanyl)-1-(3,4-dimethyl-phenyl)-ethanone] | 5.96 | 
7 | Clc1ccc(OCc2nnc(-c3ccccc3Br)o2)c(Cl)c1 [2-(2-bromophenyl)-5-[(2,4-dichlorophenoxy)methyl]-1,3,4-oxadiazole] | > 95 | 
8 | CC(C)COC(=O)NCCOC(=O)Nc1cccc(Cl)c1 [2-(2-methylpropoxycarbonylamino)ethyl N-(3-chlorophenyl)carbamate] | 6.17 | 
9 | O=C(CSCC(=O)N1CCCCC1)Nc1nc(-c2cccs2)cs1 [2-(2-oxidanylidene-2-piperidin-1-yl-ethyl)sulfanyl-N-(4-thiophen-2-yl-1,3-thiazol-2-yl)ethanamide] | > 30 | 
10 | CCOc1ccc(-c2nnc(-c3ccco3)o2)cc1OCC [2-(3,4-Diethoxy-phenyl)-5-furan-2-yl-[1,3,4]oxadiazole] | 1.18 | 
11 | CCOc1ccc(-c2nnc(-c3cccs3)o2)cc1OCC [2-(3,4-Diethoxy-phenyl)-5-thiophen-2-yl-[1,3,4]oxadiazole] | 5.93 | 

The remaining lines, values ahead:

Row | EC50 [µM] | EC50 [1] [µM] | Structure (SMILES)
12 | 1.15 |  | Cn1c(-c2c(N)n(C3CCCC3)c3nc4ccccc4nc23)nc2ccccc21 [1-cyclopentyl-3-(1-methyl-2-benzimidazolyl)-2-pyrrolo[3,2-b]quinoxalinamine]
13 |  | 11 | Cc1nc(C)c(C(=O)Nc2ccc(Oc3ccccc3)cc2)o1 [2,4-dimethyl-N-(4-phenoxyphenyl)-1,3-oxazole-5-carboxamide]
14 | > 95 |  | COCCn1c(C)cc(C(=O)CSc2nc3ccccc3o2)c1C [2-(1,3-benzoxazol-2-ylsulfanyl)-1-[1-(2-methoxyethyl)-2,5-dimethyl-pyrrol-3-yl]ethanone]
15 | 1.02 |  | O=C(CSc1nc2ccccc2o1)Nc1ccc(N2CCOCC2)c(Cl)c1 [2-(1,3-benzoxazol-2-ylsulfanyl)-N-(3-chloranyl-4-morpholin-4-yl-phenyl)ethanamide]
16 |  | 57.8 | CC1CCc2nc(NC(=O)CSc3nc4ccccc4o3)sc2C1 (stereo not given) [2-(1,3-benzoxazol-2-ylsulfanyl)-N-(6-methyl-4,5,6,7-tetrahydro-1,3-benzothiazol-2-yl)acetamide]
17 |  | 10.3 | COc1ccc(-n2c(C)cc(C(=O)COC(=O)Cn3cnc4ccccc43)c2C)cc1 [2-(1-benzimidazolyl)acetic acid [2-[1-(4-methoxyphenyl)-2,5-dimethyl-3-pyrrolyl]-2-oxoethyl] ester]
18 | 2.02 |  | CCC(C)c1ccc2oc(-c3ccc(NC(=O)Cn4cnc5c(=O)n(C)c(=O)n(C)c54)cc3)nc2c1 (stereo not given) [2-(2,6-diketo-1,3-dimethyl-purin-9-yl)-N-[4-(5-sec-butyl-1,3-benzoxazol-2-yl)phenyl]acetamide]
19 |  | 16.3 | CCOC(=O)c1ccc2nc(NC(=O)c3ccco3)sc2c1 [2-(2-furoylamino)-1,3-benzothiazole-6-carboxylic acid ethyl ester]
20 |  | 10.4 | O=S(=O)(CCSc1ccccn1)c1nc2ccccc2s1 [2-(2-pyridin-2-ylsulfanylethylsulfonyl)-1,3-benzothiazole]
